The source of these data is paper PMC2072912 (Purinergic Signalling, 2007).

Like-named read-outs stand apart in the source and are kept apart here.

Experiment [1] deals with Achromobacter xylosoxidans (intact bacteria). Briefly: [3H]adenine competition binding, intact bacteria. The conditions noted are these: for activity at Achromobacter binding sites: A. xylosoxidans binding studies.
Experiment [2] deals with A. xylosoxidans membrane preparations. The experiment is described as follows: [3H]adenine homologous competition, bacterial membrane preparations. The experiment is classed as binding, Achromobacter xylosoxidans. The conditions noted are these: estimated from homologous competition, n = 3.
The test system of experiment [3] is A. denitrificans membrane preparations. Described as above. Further details: species or system Achromobacter denitrificans. The settings on record: read-out: binding affinity (IC50).
The subject of experiment [4] is A. lwoffii membrane preparations. The description is as above. The experiment is classed as binding, Acinetobacter lwoffii.
Experiment [5] has as its target A. denitrificans (intact bacteria). Briefly: [3H]adenine competition binding, intact bacteria. The settings on record: read-out: binding affinity (IC50); A. denitrificans intact cells. Further details: species or system Achromobacter denitrificans.
Experiment [6] addresses A. lwoffii (intact bacteria). The experiment is described as follows: [3H]adenine competition binding, intact bacteria. Further details: species or system Acinetobacter lwoffii. The conditions noted are these: read-out: binding affinity (IC50); A. lwoffii intact cells.
Experiment [7] deals with T1, rat adenine receptor (Rattus norvegicus, UniProt Q7TN49).
T1 sequence (Q7TN49 1-304): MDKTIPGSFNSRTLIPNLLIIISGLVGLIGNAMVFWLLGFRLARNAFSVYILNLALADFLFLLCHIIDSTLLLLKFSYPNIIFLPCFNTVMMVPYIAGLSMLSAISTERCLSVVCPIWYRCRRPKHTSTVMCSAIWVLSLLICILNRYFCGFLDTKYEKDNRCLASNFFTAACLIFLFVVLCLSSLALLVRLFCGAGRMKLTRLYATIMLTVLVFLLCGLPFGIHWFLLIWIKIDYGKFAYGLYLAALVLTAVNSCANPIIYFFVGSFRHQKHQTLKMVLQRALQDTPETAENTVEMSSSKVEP
The settings on record: read-out: IC50 previously determined for the rat adenine receptor; cited from earlier work.

A further experiment concerns mouse adenine receptor. The settings on record: cited from earlier work.
Experiment [8] concerns the target T1, rat adenine receptor. The conditions noted are these: read-out: IC50 previously determined for the rat adenine receptor; cited from earlier work. The source holds these as a separate data set.
In experiment [9] the test system is microbial contaminations in Tris-HCl buffer. Briefly: Radioligand binding to stored. The conditions noted are these: no added protein.
Another experiment concerns Saccharomyces cerevisiae. Briefly: [3H]adenine binding to yeast control organism. The settings on record: data not shown.

Broadly, the Kd is the constant that tells how readily two partners part at equilibrium. The IC50 is the concentration that gives 50% inhibition. As for `Nc1ncnc2nc[nH]c12` [Adenine], the equilibrium dissociation constant (Kd) in [1] (estimated from homologous competition, intact bacteria, n = 8) is 11 ± 1.2 nM; in experiment [2] it was 5.84 ± 1.12 nM. Moreover, the IC50 in [1] (read-out: IC50 value for the A. xylosoxidans binding site, intact bacteria, versus 10 nM [3H]adenine) came to 13 nM; in experiment [3], 2400 nM; in experiment [4] (contaminant 3 membrane preparation, versus 10 nM [3H]adenine, n = 1) it was 2350 nM; in experiment [4] (read-out: binding affinity (IC50), A. lwoffii membrane preparations), 1000 nM; in [5], 253 nM; in experiment [6] it was 299 nM. Moreover, the IC50 at rat adenine receptor [7] was 29.9 nM. The “affinity for the mouse adenine receptor” value with mouse adenine receptor is on record as 54.9 nM.
Consider `C[C@H]1O[C@@H](n2cnc3c(N)ncnc32)[C@H](O)[C@@H]1O` [5′-deoxyadenosine], for which, on rat adenine receptor [8], the IC50 was 823 nM.
With `Nc1ncnc2nc(Br)[nH]c12` [8-bromoadenine], the IC50 at rat adenine receptor [7] was 17300 nM.
In the case of `[3H]c1nc2ncnc(N)c2[nH]1` [[^3H]adenine, [8-^3H]Adenine], the “specific [3H]adenine binding” value in [9] (buffer stored 2 weeks at 4°C) is given as 562 ± 19 cpm; in experiment [9] (buffer stored 6 weeks at 4°C), “approximately 7,000 cpm”. For the same compound, the “[3H]adenine binding” value in the experiment on Saccharomyces cerevisiae was “no [^3H]adenine binding”.
With `Nc1nc(O)nc2nc[nH]c12` [2-Hydroxyadenine], in experiment [1], the “activity at Achromobacter binding sites” value is “completely inactive”.
Take `Nc1ncnc2c1ncn2[C@@H]1O[C@H](CO)[C@@H](O)[C@H]1O` [Adenosine]: the “activity at Achromobacter binding sites” value in experiment [1] was “completely inactive”.
On to `CCn1cnc2ncnc(N)c21` [7-ethyladenine], for which the IC50 at rat adenine receptor [7] is 47300 nM.
`Nc1nc(N)c2[nH]cnc2n1` [2,6-Diaminopurine]: in experiment [1], the “activity at Achromobacter binding sites” value was “completely inactive”.
